Results from patent US9370541B2, “Extract of the above-ground portions of gynandropsis gynandra or cleome gynandra, and cosmetic, dermatological or pharmaceutical compositions including same” (LABORATOIRES EXPANSCIENCE, priority 2010, dated 2016).

Experiments:
Normal human adipocytes = test: Lipogenesis in adipocytes ([14C]-acetate incorporation); type: cell-based; details: 20 μM of cerulenin
Procedure: Normal human adipocytes were incubated for 1 hour in the presence of the extract of Gynandropsis gynandra (GG) at a concentration of 0.02% (w/v of active material) or the reference (20 μM of cerulenin). After incubation, the radioactive label [^14C]-acetate was added and the samples were incubated overnight.
At the end of incubation, the lipids were extracted and the radioactivity incorporated (corresponding to the lipogenesis) was measured by liquid scintillation.
(§1) The results were analyzed statistically by a Student's t-test.

interleukin 8 (IL8) = test: Production of IL8 by PMA-stimulated keratinocytes (NCTC-2544), ELISA; type: cell-based, Human; details: 10^−7 M Dexamethasone, 0.1 μg/ml PMA 24 hours
Procedure: At the end of the treatment, the quantities of interleukin 8 (IL8) and prostaglandin E2 (PGE2) secreted were measured by ELISA in the culture supernatants. The results were analyzed statistically by a Student's t-test.

[1] = system: Normal human keratinocytes; test: Production of ROS in keratinocytes treated with H2O2 (H2DCF-DA probe); type: cell-based; details: 10 μg/ml vitamin C, 24 hours, 100 μM H2O2, 20 minutes
Procedure: The keratinocytes were then stimulated with 100 μM of hydrogen peroxide (H2O2) for 20 minutes. The production of reactive oxygen species (ROS) was evaluated by measuring fluorescence. The results were analyzed statistically by a Student's t-test.

[2] = system: Cells of the Jurkat cell line; test: UV-induced lipid peroxidation (flow cytometry); type: cell-based; details: 100 μM BHT; UVA+B irradiation
Procedure: Cells of the Jurkat cell line were preincubated for 45 minutes in the presence of the extract of Gynandropsis gynandra (GG) at a concentration of 0.02% (w/v of active material) or 100 μM of BHT (reference) and in the presence of the fluorescent probe 011-fluorine, specific for lipid peroxidation.
The cells were then irradiated by UVA+B and then incubated for 30 minutes in the presence of GG or BHT.
At the end of incubation, the quantity of lipid peroxides was evaluated by a flow cytometry analysis of fluorescence intensity (inversely proportional to oxidation).
as §1

[3] = system: Normal human epidermal melanocytes; test: Melanin production by melanocytes; type: cell-based; details: 10^−7 M NDP-MSH alone (stimulated control); 240 hours
Procedure: After incubation, melanin was extracted from the cells and was quantified by spectrophotometry.
as §1

prostaglandin E2 (PGE2) = test: Production of PGE2 by PMA-stimulated keratinocytes (NCTC-2544), ELISA; type: cell-based, Human; details: 10^−6 M Indomethacin, 0.1 μg/ml PMA 24 hours
[4] = system: Normal human keratinocytes; test: Keratinocyte migration after artificial wound; type: cell-based; details: 10 ng/ml of EGF
Procedure: An artificial wound was prepared on a monolayer of normal human keratinocytes.
At 0, 24, 48 and 72 hours, keratinocyte migration was monitored by microphotography and was quantified by measuring the surface area of the wound.
as §1

Mastocytes = test: Release of histamine by mastocytes stimulated by substance P, ELISA; type: cell-based; details: 10 nM Calcium; 10 μM substance P, 15 minutes
Procedure: Mastocytes were preincubated for 30 minutes in the presence of the extract of Gynandropsis gynandra (GG) at a concentration of 0.08% (w/v of active material) or 10 Mm of calcium (reference inhibitor of histamine release).
The mastocytes were then stimulated with 10 μM of substance P for 15 minutes. At the end of incubation, the histamine released was quantified by ELISA.
as §1

## C/C=C/C/C=C/CCC(=O)[C@H]1O[C@H]1C(N)=O [cerulenin]
Normal human adipocytes
  Incorporation of acetate (cpm): 14934 ± 671 cpm
Normal human adipocytes; Homo sapiens, Adipocyte
  inhibition at 20 µM: 55%

## C[C@@H]1C[C@H]2[C@@H]3CCC4=CC(=O)C=C[C@]4(C)[C@@]3(F)[C@@H](O)C[C@]2(C)[C@@]1(O)C(=O)CO [Dexamethasone, dexamethasone]
Interleukin 8 (IL8)
  IL8: 7.4 ± 0.8 ng/mL
Interleukin 8 (IL8); Homo sapiens, NCTC-2544
  inhibition at 0.1 µM: 85%

## O=C1O[C@H]([C@@H](O)CO)C(O)=C1O [vitamin C]
[1]
  ROS (fluorescence units): 992.83 ± 93.96 fluorescence units
[1]; Homo sapiens, Keratinocyte
  inhibition at 10 µg/mL: 33%

## Cc1cc(C(C)(C)C)c(O)c(C(C)(C)C)c1 [BHT]
[2]
  Lipid peroxides (% of irradiated control): 64 % of irradiated control
  Protection (%): 49% p < 0.01

## NDP-MSH
[3]
  Melanin (μl/ml): 27.1 ± 0.9 μl/ml
  Stimulation of melanin production: +108% p < 0.001

## COc1ccc2c(c1)c(CC(=O)O)c(C)n2C(=O)c1ccc(Cl)cc1 [Indomethacin, indomethacin]
Prostaglandin E2 (PGE2)
  PGE2: 0.039 ± 0.0 ng/mL
Prostaglandin E2 (PGE2); Homo sapiens, NCTC-2544
  inhibition at 1 µM: 100%

## EGF
[4]; 48 h
  Migration area (percent of wound covered): 99 (p < 0.001) percent of wound covered
[4]; 72 h
  Migration area (percent of wound covered): 100 (p < 0.001) percent of wound covered

## [Ca+2] [Calcium, calcium]
Mastocytes
  Histamine: 21.8 ± 1.0 ng/mL
  Inhibition of histamine release: −85% p < 0.01
